Measured values as given in US20030054053A1, “Methods and compositions for inhibiting the proliferation of prostate cancer cells” (priority 2001, published 2003).

How the values were obtained:
Type in all cases: cell-based, Human
LNCaP cells = test: LNCaP cell proliferation, MTS assay
Procedure: (§1) Human prostate cancer cell line, LNCaP (American Type Culture Collection (ATCC), Manassas, Va.), was grown in RPMI 1640 medium (Mediatech, Herndon, Va.) supplemented with 5% fetal bovine serum (FBS) and 5% CO2 at 37° C. until reaching approximately 50-70% confluence. The media were changed to serum-free RPMI 1640 at 24 hours prior to experiments being performed to deplete undesired steroids. […] Equivalent amounts of solvent were added to control cells.
(§2) Five days later, cell proliferation was measured by MTS assay kit (Promega, Madison, Wis.), and PSA and hK2 levels in spent media were determined by the Tandem-E PSA kit (Hybritech Inc., San Diego, Calif.) or Mayo's hK2 assay (Zhang et al., 1999, Endocrin., 140:1665-71).

androgen receptor = test: Immunocytochemical staining, whole cell androgen receptor in LNCaP cells; details: Mib alone versus absence of androgens
Procedure: Twenty-four hrs later, LNCaP cell slides were washed with 1×PBS, and fixed in acetone at −20° C. for 10 min. The air-dried slides were treated with EtOH/chloroform (1:1) mixture for 5 min to permeate the cell membrane and air-dried again. The slides were washed with 1×TBST and stained with a monoclonal antibody against the human androgen receptor (Pharmingen) using a DAKO kit (DAKO). The androgen receptor staining was observed using microscopy (Zeiss, Thornwood, N.Y.). The density of androgen receptor in a nucleus (or a whole cell) and the area of the nucleus or the whole cell were quantified by KS400 software (Zeiss) provided by the Mayo Molecular Core Facility. The androgen receptor protein level in a nucleus or a whole cell was calculated by multiplication of the density of androgen receptor in the nucleus or the whole cell with the area of the nucleus or the whole cell, respectively. In each sample, 20 to 25 cells were analyzed. All results were analyzed by 2-tailed Student's t-test. A p<0.05 was accepted as the level of significance.

PSA = PSA level in spent media of LNCaP cells (Tandem-E PSA kit); details: 1 nM Mib, five days
Procedure: as §1, §2

hK2 = hK2 level in spent media of LNCaP cells (Mayo's hK2 assay); details: 1 nM Mib, five days
Procedure: as §1, §2

FKBP51 = FKBP51 protein level, Western blot in LNCaP cells; details: 1 nM Mib, 24 hrs
Procedure: Cells were harvested and the whole cell lysate and nuclear extract were prepared as described (Zhu et al., 1999, Endocrin., 140:5451-4). Western blotting analysis was performed according to the protocol described (Id). A mouse antibody against human FKBP51 (1:5,000 dilution) (a gift from Dr. David Toft, Mayo Clinic), the human androgen receptor (1:1000 or 1:2000 dilution) (Pharmingen, San Diego, Calif.) or human Sp1 (1:2000 dilution) (Santa Cruz, Santa Cruz, Calif.) was used as the primary antibody. Ponceau S staining was used for monitoring protein loading and transfer efficiency (Mitchell et al., 1999, Cancer Res., 59:5892-5).

SMILES	LNCaP cell growth in the presence of Mib (LNCaP cells; 1 nM Mib alone)	androgen receptor level (androgen receptor)	androgen-stimulated cell growth (LNCaP cells; 1 nM Mib, five days, MTS)	androgen-stimulated cell growth at 75 μM (LNCaP cells; 1 nM Mib, silibin 75 μM)	cell proliferation in the absence of Mib (LNCaP cells; no Mib, five days, MTS)	PSA accumulation stimulated by androgens (PSA)	hK2 accumulation stimulated by androgens (hK2)	androgen-induced FKBP51 protein level (FKBP51)
C[C@@H]1CC2=CC(=O)CC[C@@H]2[C@H]2CC[C@@]3(C)[C@@H](CC[C@]3(C)O)[C@@H]21 [Mib, mibolerone, reference compound]	increased significantly	increased the androgen receptor level significantly						
COc1cc(C2Oc3cc([C@H]4Oc5cc(O)cc(O)c5C(=O)[C@@H]4O)ccc3OC2CO)ccc1O (some centres unmarked) [silibin]			inhibited	fully suppressed	neither silymarin or silibin affected	inhibited	inhibited	reduced
